Several values for one entry are separate records, joined by “and”; a condition that tells them apart may be missing. Equal values may be shown once. Read-outs that look alike come from different tables or passages of the source.
Key:
[1] = system: human sRANKL and human OPG; test: In vitro pull-down assay of sRANKL binding to OPG
Description: To evaluate whether S3-15 affects the binding of sRANKL or mRANKL to OPG, we did the pull-down assay.
sRANKL-OPG: 200 ng human sRANKL with his-sumo tag was incubated with Ni gel at 4 °C for 10 min. Then the Ni gel was washed with PBS for 3 times. 500 μL PBS that contains 100 ng Fc tag human OPG. Then S3-15 was treated in different concentration (0, 10, 1 and 0.3 μM). The mixtures were incubating at 4 °C for 30 min. Washed with PBS for 3 times. 500 μL 1% Triton X-100 in PBS was then added at 4 °C. The concentration of OPG was tested by OPG ELISA kit (USCN, China).

T lymphocyte = T lymphocyte cell proliferation assay (CFSE, CD4+/CD8+ flow cytometry); type: cell-based, human
Description: T lymphocyte cell proliferation assay was performed according to a reported method[58] with some modification. Briefly, 5 × 10^6 cells /mL cells were stained 2.5 μM CFSE (Tonbo Biosciences) and incubated at 37 °C for 12 min. Then washed and discarded the supernatant and adjusted the CFSE stained cell to 1.75 × 10^6 cells /mL. Cells were diluted in 1640 completed medium containing 5 μg/mL anti-CD3 antibody (Tonbo Biosciences) to 3 × 10^5 cells/mL and seed in a 96-well plate or 24-well plate that pre-packaged 0.4 μg/well anti-CD28 antibody and 1.6 μg anti-CD28 antibody (24-well) (Tonbo Biosciences). Cells were then cultured for 3 days, 9 days or 12 days. Subsequently, the proportion of CD4^+ and CD8^+ cells was determined by flow cytometry (Beckman Coulter, FC500) according to manufacturer’s instruction of PE-Cyanine7 anti-Human CD8a and PE anti-Human CD4 antibodies (Tonbo Biosciences). Data analyzing was performed by using CXP software (Beckman Coulter, Supplementary Fig. 8).

[2] = Cancer donor 1, 3 day, S3-15 0.2
[3] = Cancer donor 1, 3 day, S3-15 10
[4] = Healthy donor 1, 3 day, S3-15 0.2
[5] = Healthy donor 1, 3 day, S3-15 1
[6] = Healthy donor 1, 3 day, S3-15 5
[7] = Healthy donor 1, 3 day, S3-15 10
[8] = Healthy donor 1, 12 day, S3-15 0.2
[9] = Healthy donor 1, 12 day, S3-15 1
[10] = Healthy donor 1, 12 day, S3-15 5

SMILES: CC(=O)/C(=N\Nc1ccccc1C(=O)O)C(=O)Nc1ccccn1 [S3-15]
- sRANKL-OPG binding signal (fig. S4m) [1]: 0.6462 and 0.65 and 0.761
- sRANKL and OPG binding ([1]; 0.3 μM): cannot affects
- sRANKL-OPG binding signal (fig. S4m) ([1]; 0.3): 0.7746 and 0.9001 and 1.2775
- sRANKL and OPG binding ([1]; 10 and 1 μM): significantly suppressed
- CD8+ cells in total cells (%) (T lymphocyte; [2]): 14.3% and 18.21% and 16% and 17.82%
- CD8+cells in CFSE-cells (%) (T lymphocyte; [2]): 44.38% and 49.16% and 53.36% and 45.53%
- CFSE- cells in total cells (%) (T lymphocyte; [2]): 7.99% and 11.49% and 11.51% and 10.07%
- CD8+ cells in total cells (%) (T lymphocyte; Cancer donor 1, 3 day, S3-15 1): 15.56% and 19.33% and 22.39% and 19.99%
- CD8+cells in CFSE-cells (%) (T lymphocyte; Cancer donor 1, 3 day, S3-15 1): 49.17% and 50.09% and 56.77% and 50.35%
- CFSE- cells in total cells (%) (T lymphocyte; Cancer donor 1, 3 day, S3-15 1): 9.93% and 12.76% and 16.17% and 13.25%
- CD8+ cells in total cells (%) (T lymphocyte; Cancer donor 1, 3 day, S3-15 5): 18.34% and 20.27% and 20.25% and 13.63%
- CD8+cells in CFSE-cells (%) (T lymphocyte; Cancer donor 1, 3 day, S3-15 5): 56.42% and 54.7% and 55.11% and 51.68%
- CFSE- cells in total cells (%) (T lymphocyte; Cancer donor 1, 3 day, S3-15 5): 12.69% and 14.11% and 13.95% and 8.72%
- CD8+ cells in total cells (%) (T lymphocyte; [3]): 19.25% and 18.44% and 17.07% and 14.93%
- CD8+cells in CFSE-cells (%) (T lymphocyte; [3]): 49.18% and 47.91% and 49.38% and 44.39%
- CFSE- cells in total cells (%) (T lymphocyte; [3]): 12.56% and 11.54% and 10.9% and 9.12%
- CD4+cells in total cells (%) (T lymphocyte; [4]): 68.58% and 70.02% and 62.64% and 62.46%
- CD8+ cells in total cells (%) (T lymphocyte; [4]): 18.64% and 19.25% and 16.01% and 13.6%
- CD8+cells in CFSE-cells (%) (T lymphocyte; [4]): 20.07% and 33.28% and 21.3% and 26.99%
- CFSE- cells in total cells (%) (T lymphocyte; [4]): 25.93% and 25.33% and 20.8% and 18.33%
- CD4+cells in total cells (%) (T lymphocyte; [5]): 63.51% and 67.38% and 70.68% and 68.88%
- CD8+ cells in total cells (%) (T lymphocyte; [5]): 12.65% and 15.35% and 17.94% and 14.88%
- CFSE- cells in total cells (%) (T lymphocyte; [5]): 21.49% and 20.46% and 25.21% and 18.85%
- CD4+cells in total cells (%) (T lymphocyte; [6]): 68.14% and 68.06% and 70.19% and 66.42%
- CD8+ cells in total cells (%) (T lymphocyte; [6]): 12.78% and 16.22% and 14.24% and 15.07%
- CD8+cells in CFSE-cells (%) (T lymphocyte; [6]): 16% and 25.32% and 17.12% and 15.1%
- CFSE- cells in total cells (%) (T lymphocyte; [6]): 22.52% and 22.58% and 17.52% and 21.09%
- CD4+cells in total cells (%) (T lymphocyte; [7]): 72.21% and 54.01% and 61.69% and 61.53%
- CD8+ cells in total cells (%) (T lymphocyte; [7]): 17.68% and 18.86% and 15.27% and 10.99%
- CD8+cells in CFSE-cells (%) (T lymphocyte; [7]): 13.48% and 20.77% and 16.03%
- CFSE- cells in total cells (%) (T lymphocyte; [7]): 22.22% and 20.93% and 15.94%
- CD4+cells in total cells (%) (T lymphocyte; [8]): 25.25% and 26.11% and 25.81% and 23.7%
- CD8+ cells in total cells (%) (T lymphocyte; [8]): 16% and 15.3% and 20.01% and 21.66%
- CD8+cells in CFSE-cells (%) (T lymphocyte; [8]): 74.91% and 72.37% and 73.55% and 71.27%
- CFSE- cells in total cells (%) (T lymphocyte; [8]): 16.3% and 15.37% and 18.72% and 19.27%
- CD4+cells in total cells (%) (T lymphocyte; [9]): 25.53% and 24.4% and 24.71% and 25.6%
- CD8+ cells in total cells (%) (T lymphocyte; [9]): 15.74% and 17.31% and 17.44% and 15.99%
- CD8+cells in CFSE-cells (%) (T lymphocyte; [9]): 74.2% and 73.02% and 72.56% and 72.37%
- CFSE- cells in total cells (%) (T lymphocyte; [9]): 15.48% and 17.29% and 17.32% and 15.2%
- CD4+cells in total cells (%) (T lymphocyte; [10]): 25.95% and 25.52% and 26.76% and 24.64%
- CD8+ cells in total cells (%) (T lymphocyte; [10]): 18.18% and 19.04% and 19.74% and 15.99%
- CD8+cells in CFSE-cells (%) (T lymphocyte; [10]): 75% and 70.17% and 74.02% and 72.37%

From PMC9468151, “Identification of a binding site on soluble RANKL that can be targeted to inhibit soluble RANK-RANKL interactions and treat osteoporosis” (Nature Communications, 2022)
